Results as given in patent US20240174680A1, “CDK2 INHIBITORS AND METHODS OF USING THE SAME” (Cedilla Therapeutics, Inc., priority 2021, published 2024).

What was measured:
[1] = tested on: Kuramochi cells labeled with mApple-H2B; test: IncuCyte cell proliferation assay; format: cell-based; conditions: 72 hours
Procedure: IncuCyte® assay was used to measure the effect of disclosed compounds on cell proliferation. Fluorescent microscopy images of cells were taken immediately after compound treatment and 72 hours later. Image analysis software was used to obtain cell counts as a function of compound concentration. Kuramochi cells labeled with mApple-H2B were seeded on 384-well assay-ready plates. Plates were placed in an IncuCyte® (Sartorius) and scanned at 0 and 72 hours. IncuCyte® software was used to count the number of fluorescent nuclei in each well. The fold change in cell count from 0 to 72 hours in wells treated with increasing compounds concentrations (10 pts, 1/2 log dilution, 20 μM top concentration) was normalized to DMSO control wells. The normalized cell counts were fit with dose response curves and a […] was calculated.
Compounds with an ICp greater than 0.5 μM and less than or equal to 5.0 μM are designated as “B”.

Kuramochi cells = test: BrdU cell proliferation assay (colorimetric ELISA); format: cell-based; conditions: read-out: BrdU - KURAMOCHI.1: IC50
Procedure: A BrdU assay was used as a measure of proliferation based on the DNA replication process of proliferating cells. BrdU, a pyrimidine analog, is added to the cell culture and incorporated into the DNA of proliferating cells. The presence of the BrdU analog was then measured through a colorimetric ELISA. After fixation and permeabilization of cells, peroxidase-conjugated antibody recognizing BrdU is added and allowed to incubate, followed by thorough washing to remove unbound antibody. In order to quantify the amount of bound antibody, peroxidase substrate is added and produces a color that can be measured at 450 nm.
On day −1, Kuramochi cells (Sekisui XenoTech JCRB0098) were seeded at 2,000 cells/well in columns 2-12 of a 96 well plate (Corning, CLS3596) in 150 μL media and allowed to adhere overnight at 37 degree with 5% CO2.
On day 0, the source plate was prepared by adding 10 mM compounds and performing 3-fold serial dilutions for a 10-point dose response of each compound. Using a multichannel pipette, 2 μL of the contents of the source plate were stamped into an intermediate plate with 500 μL of RPMI 1640 Media, GlutaMAX Supplement (Life Technologies, 61870127) in each well of a Nunc 96 DeepWell™ plate, non-treated 96 DeepWell plate, 2 mL/well, sterile, natural, 60/cs (Sigma Z717274) and mixed thoroughly. 50 μL from each well of this intermediate plate were added to 4 wells of a 96-well plate with previously seeded Kuramochi cells.
On day 4, the plates were developed using the BrdU ELISA Cell Proliferation Assay according to manufacturer's instructions (Roche, 11647229001). Briefly, BrdU was diluted 1:100 in Gibco®, OptiMEM® and 20 μL/well was added, shaken for 10 minutes at 350 rpm, and then returned to the incubator for 1 hour. Following incubation, the medium was discarded, and the cells were fixed by adding 200 μL of Fix/Denature solution. The anti-BrdU peroxidase antibody was diluted 1:1000 in OptiMEM, added at 100 μL/well, and incubated while shaking (350 rpm) for one hour. Three washes with PBS were performed to remove any unbound antibody, followed by the addition of 100 μL of substrate solution to each well. 25 μL/well of 1M sulfuric acid solution was then added to halt the reaction, and plates were read out using an Envision spectrophotometer (Perkin Elmer) set to read 450 nm absorbance. Background absorbance values from empty wells were subtracted from all samples and then normalized to DMSO treated wells.

CDK2/Cyclin E1 [2] = target: T1, CDK2/Cyclin E1 (Homo sapiens, UniProt P24941); test: CDK2/Cyclin E1 Caliper LabChip EZ Reader mobility shift assay; format: biochemical; set-up: purchased Eurofins 14-475; conditions: read-out: Caliper Assay (CDK2/CCNE1): IC50
In short: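 Mobility-shift kinase assay: compound titrations preincubated 30 min with enzyme and ATP, reaction started with 5-FAM-QSPKKG-CONH2 peptide. Final 2.5 nM CDK2/Cyclin E1, 100 μM ATP, 1.5 μM peptide, HEPES pH 7.5; stopped with EDTA after 100 min. IC50 from four-parameter fit of normalized conversion ratio.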

CDK2/Cyclin E1 [3] = target: T1, CDK2/Cyclin E1; test: HotSpot kinase inhibition assay (radiometric, Histone H1 substrate); format: biochemical; conditions: 10 μM ATP, read-out: Kinase Assay (CDK2/CCNE): IC50
Procedure: Inhibition of CDK2/CCNE1 activities in the presence of compounds of the present disclosure was evaluated using the HotSpot™ assay (proprietary to Reaction Biology Corporation). In the assay, CDK2/Cyclin E1 (Signalchem C29-18G) catalyzed the transfer of radioactive phosphate to amino acid residues of Histone H1 (Sigma, H5505), which are detected radiometrically.
Reactions contained 20 mM HEPES pH 7.5, 10 mM MgCl2, 1 mM EGTA, 2 mM DTT, 0.02% Brij35, 0.02 mg/mL BSA, 0.1 mM Na3VO4, 1% DMSO, 1.5 nM CDK2/Cyclin E1, 10 μM ATP, and 20 μM Histone H1.
CDK2/Cyclin E1 and Histone H1 were mixed in reaction buffer. To this mixture dose titrations of inhibitors in 100% DMSO were added in by acoustic transfer. The compound mixtures were incubated for 20 minutes, then the kinase reactions were initiated by the addition of a mixture of ATP and ^33P ATP for final concentrations of 10 μM total ATP, 20 μM Histone H1, and 1.5 nM CDK2/Cyclin E1. The reactions were carried out for 120 minutes, then spotted on a P81 ion exchange filter paper, and extensively washed with 0.75% phosphoric acid. The resulting radioactive counts were normalized to yield % activity, plotted against compound concentration, and fit to a four-parameter equation to determine the IC50 for each compound.

Structure (SMILES)	IC50 [1] [nM]	IC50 (Kuramochi cells) [nM]	IC50 (CDK2/Cyclin E1 [2]) [nM]	IC50 (CDK2/Cyclin E1 [3]) [nM]
C[C@@H](OCC1CCC(F)(F)CC1)[C@H](NC(=O)C1CN(C(=O)c2cnn(Cc3ccc(F)cc3)c2)CC12CN(C(=O)C1(C(F)(F)F)CC1)C2)C(=O)N1CCC(F)(F)CC1 (single isomer, unassigned) [I-190B]	5000 to 20000	500 to 5000	–	–
CNC(=O)[C@@H](NC(=O)[C@H]1CN(C(=O)c2cnn(Cc3ccccc3)c2)CC12CN(C(=O)OC(C)(C)C)C2)[C@@H](C)OCc1ccccc1 [I-3B]	–	–	> 10000	1000 to 10000
CNC(=O)[C@@H](NC(=O)[C@@H]1CN(C(=O)c2cnn(Cc3ccccc3)c2)CC12CN(C(=O)CC1CC1)C2)[C@@H](C)OCc1ccccc1 [I-8A]	–	–	1000 to 10000	1000 to 10000
CNC(=O)[C@@H](NC(=O)[C@H]1CN(C(=O)c2cnn(Cc3ccccc3)c2)CC12CN(C(=O)CC1CC1)C2)[C@@H](C)OCc1ccccc1 [I-8B]	–	–	1000 to 10000	10000 to 100000
CNC(=O)[C@@H](NC(=O)C1CN(C(=O)c2cnn(CC3CCCCC3)c2)CC12CN(C(=O)C1CC1(C)C)C2)[C@@H](C)OCc1ccccc1 (stereo partly shown) [I-10]	–	–	100 to 1000	≤ 1000
CNC(=O)[C@@H](NC(=O)C1CN(C(=O)c2cnn(Cc3ccccn3)c2)CC12CN(C(=O)C1CC1(C)C)C2)[C@@H](C)OCc1ccccc1 (stereo partly shown) [I-11]	–	–	100 to 1000	≤ 1000
CNC(=O)[C@@H](NC(=O)C1CN(C(=O)c2cnn(Cc3ccncc3)c2)CC12CN(C(=O)C1CC1(C)C)C2)[C@@H](C)OCc1ccccc1 (stereo partly shown) [I-13]	–	–	100 to 1000	≤ 1000
CNC(=O)[C@@H](NC(=O)C1CN(C(=O)c2cnn(C)c2)CC12CN(C(=O)C1CC1(C)C)C2)[C@@H](C)OCc1ccccc1 (stereo partly drawn) [I-14, N-((2S,3R)-3-(benzyloxy)-1-(methylamino)-1-oxobutan-2-yl)-2-(2,2-dimethylcyclopropane-1-carbonyl)-6-(1-methyl-1H-pyrazole-4-carbonyl)-2,6-diazaspiro[3.4]octane-8-carboxamide]	–	–	1000 to 10000	1000 to 10000
CNC(=O)[C@@H](NC(=O)[C@H]1CN(Cc2cnn(C)c2)CC12CN(C(=O)[C@H]1CC1(C)C)C2)[C@@H](C)OCc1ccccc1 [I-47B]	–	> 10000	> 10000	–
C[C@@H](OCc1ccccc1)[C@H](NC(=O)C1CN(C(=O)c2cnn(Cc3ccccc3)c2)CC12CN(C(=O)C1CC1(C)C)C2)C(=O)NCCCCCNC(=O)OC(C)(C)C (stereo partly shown) [I-52]	500 to 5000	500 to 5000	–	–
C[C@@H](OCc1ccccc1)[C@H](NC(=O)C1CN(C(=O)c2cnn(Cc3ccccc3)c2)CC12CN(C(=O)C1CC1(C)C)C2)C(=O)NCCCCCN (stereo partly shown) [I-57]	–	> 10000	–	–
COCC1CCCN(C(=O)[C@@H](NC(=O)[C@H]2CN(C(=O)c3cnn(Cc4ccccc4)c3)CC23CN(C(=O)[C@H]2CC2(C)C)C3)[C@@H](C)OCC2CCCCC2)C1 (stereo partly shown) [I-111]	500 to 5000	≤ 500	–	–
C[C@@H](OCC1CCC(F)(F)CC1)[C@H](NC(=O)[C@@H]1CN(C(=O)c2cnn(Cc3ccc(F)cc3)c2)CC12CN(C(=O)C1(C(F)(F)F)CC1)C2)C(=O)N1CCC(F)(F)CC1 [I-190A]	≤ 500	–	10 to 100	–
COC[C@H]1CCCN(C(=O)[C@@H](NC(=O)[C@@H]2CN(C(=O)c3cncs3)CC23CN(C(=O)[C@H]2CC2(C)C)C3)[C@@H](C)OCC2CCCCC2)C1 [I-196A, (S)—N-((2S,3R)-3-(cyclohexylmethoxy)-1-((S)-3-(methoxymethyl)piperidin-1-yl)-1-oxobutan-2-yl)-2-((S)-2,2-dimethylcyclopropanecarbonyl)-6-(thiazole-5-carbonyl)-2,6-diazaspiro[3.4]octane-8-carboxamide]	–	–	≤ 10	≤ 1000
CC(C)O[C@H]1C[C@@H](NC(=O)[C@@H]2CN(C(=O)c3cnn(Cc4ccccc4)c3)CC23CN(C(=O)[C@H]2CC2(C)C)C3)C1 [I-234]	–	> 10000	> 10000	–
Cc1ccc(CNC(=O)[C@@H]2CN(C(=O)c3cnn(Cc4ccccc4)c3)CC23CN(C(=O)[C@H]2CC2(C)C)C3)nn1 [I-252]	–	–	100 to 1000	≤ 1000
CC1(C)C[C@@H]1C(=O)N1CC2(CN(C(=O)c3cnn(Cc4ccccc4)c3)C[C@H]2C(=O)N2CCN(CC3CCCCC3)C(=O)C2)C1 [I-253]	–	–	100 to 1000	1000 to 10000
CC1(C)C[C@@H]1C(=O)N1CC2(CN(C(=O)c3cnn(Cc4ccccc4)c3)C[C@H]2C(=O)N2CC[C@H](OCC3CCCCC3)C2)C1 [I-256]	–	–	100 to 1000	1000 to 10000
C[C@@H](OCC1CCCCC1)[C@H](NC(=O)[C@@H]1CN(C(=O)c2cnn(Cc3ccccc3)c2)CC12CN(C(=O)[C@H]1CC1(C)C)C2)C(C)(C)O [I-281]	–	–	≤ 10	≤ 1000
COC[C@H]1CCCN(C(=O)[C@@H](NC(=O)[C@@H]2CN(C(=O)c3cncs3)CC23CN(C(=O)[C@H]2CC2(C)C)C3)[C@@H](C)O[C@H](C)C2CCCCC2)C1 [I-367]	–	–	≤ 10	≤ 1000
CC1(C)C[C@@H]1C(=O)N1CC2(CN(C(=O)c3cnn(Cc4ccccc4)c3)C[C@H]2C(=O)NCc2ccc(Cl)nn2)C1 [I-376]	–	–	1000 to 10000	1000 to 10000
CC1(C)C[C@@H]1C(=O)N1CC2(CN(C(=O)c3cnn(Cc4ccccc4)c3)C[C@H]2C(=O)NCc2ccc(C3CCCCC3)nn2)C1 [I-377]	–	–	100 to 1000	≤ 1000
Cc1ccc(CNC(=O)[C@@H]2CN(C(=O)c3cncs3)CC23CN(C(=O)[C@H]2CC2(C)C)C3)nn1 [I-378]	–	–	> 10000	10000 to 100000
C[C@@H](OCC1CCOCC1)[C@@H](COC(F)F)NC(=O)[C@@H]1CN(C(=O)c2cncs2)CC12CN(C(=O)[C@H]1CC1(C)C)C2 [I-441]	> 20000	–	–	–
C[C@@H](OCC1CCOCC1)[C@H](NC(=O)[C@@H]1CN(C(=O)c2cncs2)CC12CN(C(=O)[C@H]1CC1(C)C)C2)C(=O)N1CCC(c2ccncc2)CC1 [I-442]	5000 to 20000	–	–	–
COC[C@H]1CCCN(C(=O)[C@@H](NC(=O)[C@@H]2CN(C(=O)c3cncs3)CC23CN(C(=O)[C@H]2CC2(C)C)C3)[C@@H](C)O[C@H](C)C2CCCCC2)C1 [I-466]	–	–	≤ 10	≤ 1000
